# Source: patent publication US20100298141A1, “SUBSTITUTED PYRIDINE N-OXIDE HERBICIDES” (E. I. DU PONT DE NEMOURS AND COMPANY, priority 2007, published 2010)
# Legend:
# Russian thistle = assay: Test C pre-/postemergence test; format: in vivo, Salsola kali; conditions: Preemergence
# Source text: Seeds of plant species selected from blackgrass (Alopecurus myosuroides), downy brome (Bromus tectorum), green foxtail (Setaria viridis), Italian ryegrass (Lolium multiflorum), wheat (Triticum aestivum), wild oat (Avena fatua), catchweed bedstraw (Galium aparine), Russian thistle (Salsola kali), […] (Cynodon dactylon), Surinam grass (Brachiaria decumbens), cocklebur (Xanthium strumarium), corn (Zea mays), crabgrass (Digitaria sanguinalis), woolly cupgrass (Eriochloa villosa), giant foxtail (Setaria faberii), Goosegrass (Eleusin indica), johnsongrass (Sorghum halepense), kochia (Kochia scoparia), lambsquarters (Chenopodium album), morningglory (Ipomoea coccinea), eastern black nightshade (Solanum ptycanthum), yellow nutsedge (Cyperus esculentus), pigweed (Amaranthus retroflexus), common ragweed (Ambrosia elation), soybean (Glycine max), common (oilseed) sunflower (Helianthus annuus), and velvetleaf (Abutilon theophrasti) were planted and treated preemergence with test chemicals formulated in a non-phytotoxic solvent mixture which included a surfactant. At the same time, plants selected from these crop and weed species and also winter barley (Hordeum vulgare), canarygrass (Phalaris minor), and chickweed (Stellaria media) were treated with postemergence applications of some of the test chemicals formulated in the same manner. Plants ranged in height from 2 to 18 cm (1- to 4-leaf stage) for postemergence treatments. […] At time of treatment, test pots were flooded to 3 cm above the soil surface, treated by application of test compounds directly to the paddy water, and then maintained at that water depth for the duration of the test. […] A dash (-) response means no test result.
# green foxtail = assay: Test F preemergence test; format: in vivo, Setaria viridis; conditions: scale 0 to 100
# Outline: (§1)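 Test chemicals in a non-phytotoxic solvent mixture containing a surfactant were applied preemergence to sown seeds or postemergence to sugarcane plants. Treated plants and controls were held in a greenhouse for 14 to 21 days, then visually evaluated against controls.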
# mustard = assay: Test F preemergence test; format: in vivo, Brassica nigra; conditions: scale 0 to 100
# Outline: as §1
# guineagrass = assay: Test F preemergence test; format: in vivo, Panicum maximum; conditions: scale 0 to 100
# Outline: as §1
# dallisgrass = assay: Test F preemergence test; format: in vivo, Paspalum dilatatum; conditions: scale 0 to 100
# Outline: as §1
# barnyardgrass = assay: Test F preemergence test; format: in vivo, Echinochloa crus-galli; conditions: scale 0 to 100
# Outline: as §1
# southern sandbur = assay: Test F preemergence test; format: in vivo, Cenchrus echinatus; conditions: scale 0 to 100
# Outline: as §1
# prickly sida = assay: Test F preemergence test; format: in vivo, Sida spinosa; conditions: scale 0 to 100
# Outline: as §1
# common purslane = assay: Test F preemergence test; format: in vivo, Portulaca oleracea; conditions: scale 0 to 100
# Outline: as §1
# common groundsel = assay: Test F preemergence test; format: in vivo, Senecio vulgaris; conditions: scale 0 to 100
# Outline: as §1
# itchgrass = assay: Test F preemergence test; format: in vivo, Rottboellia cochinchinensis; conditions: scale 0 to 100
# Outline: as §1
# quackgrass = assay: Test F preemergence test; format: in vivo, Elytrigia repens; conditions: scale 0 to 100
# Outline: as §1
# field bindweed = assay: Test F preemergence test; format: in vivo, Convolvulus arvensis; conditions: scale 0 to 100
# Outline: as §1
# common mallow = assay: Test F preemergence test; format: in vivo, Malva sylvestris; conditions: scale 0 to 100
# Outline: as §1
structure (smiles),measurement,setting,value
Cc1cc[n+]([O-])c(S(=O)(=O)C(Cl)c2c(C(F)(F)F)nn(C)c2Cl)c1 (racemic) [Compound 22],Russian Thistle plant response rating,"Russian thistle; 62 g ai/ha, scale 0 to 100",100
same,"Plant response rating, Russian Thistle","Russian thistle; 31 g ai/ha, scale 0 to 100 (0 no effect, 100 complete control)",100
same,"Foxtail, Green plant response rating","green foxtail; 62 g ai/ha, Preemergence",20
same,"Foxtail, Green plant response rating","green foxtail; 125 g ai/ha, preemergence",95
same,"Plant response rating, Foxtail, Green","green foxtail; Preemergence, 16 g ai/ha",0
same,"Plant response rating, Foxtail, Green","green foxtail; Preemergence, 31 g ai/ha",15
same,Black Mustard plant response rating,"mustard; 62 g ai/ha, Preemergence",50
same,Black Mustard plant response rating,"mustard; 125 g ai/ha, preemergence",80
same,"Plant response rating, Black Mustard","mustard; Preemergence, 16 g ai/ha",0
same,"Plant response rating, Black Mustard","mustard; Preemergence, 31 g ai/ha",20
same,Guineagrass plant response rating,"guineagrass; 62 g ai/ha, Preemergence",90
same,Guineagrass plant response rating,"guineagrass; 125 g ai/ha, preemergence",100
same,"Plant response rating, Guineagrass","guineagrass; Preemergence, 16 g ai/ha",60
same,"Plant response rating, Guineagrass","guineagrass; Preemergence, 31 g ai/ha",80
same,Dallisgrass plant response rating,"dallisgrass; 62 g ai/ha, Preemergence",90
same,Dallisgrass plant response rating,"dallisgrass; 125 g ai/ha, preemergence",100
same,"Plant response rating, Dallisgrass","dallisgrass; Preemergence, 16 g ai/ha",0
same,"Plant response rating, Dallisgrass","dallisgrass; Preemergence, 31 g ai/ha",20
same,Barnyardgrass plant response rating,"barnyardgrass; 62 g ai/ha, Preemergence",75
same,Barnyardgrass plant response rating,"barnyardgrass; 125 g ai/ha, preemergence",95
same,"Plant response rating, Barnyardgrass","barnyardgrass; Preemergence, 16 g ai/ha",10
same,"Plant response rating, Barnyardgrass","barnyardgrass; Preemergence, 31 g ai/ha",40
same,Sandbur plant response rating,"southern sandbur; 62 g ai/ha, Preemergence",75
same,Sandbur plant response rating,"southern sandbur; 125 g ai/ha, preemergence",98
same,"Plant response rating, Sandbur","southern sandbur; Preemergence, 31 g ai/ha",65
same,Prickly Sida plant response rating,"prickly sida; 62 g ai/ha, Preemergence",40
same,Prickly Sida plant response rating,"prickly sida; 125 g ai/ha, preemergence",80
same,"Plant response rating, Prickly Sida","prickly sida; Preemergence, 16 g ai/ha",0
same,"Plant response rating, Prickly Sida","prickly sida; Preemergence, 31 g ai/ha",40
same,Purslane plant response rating,"common purslane; 62 g ai/ha, Preemergence",30
same,Purslane plant response rating,"common purslane; 125 g ai/ha, preemergence",90
same,"Plant response rating, Purslane","common purslane; Preemergence, 16 g ai/ha",0
same,"Plant response rating, Purslane","common purslane; Preemergence, 31 g ai/ha",30
same,Groundsel plant response rating,"common groundsel; 62 g ai/ha, Preemergence",50
same,Groundsel plant response rating,"common groundsel; 125 g ai/ha, preemergence",98
same,"Plant response rating, Groundsel","common groundsel; Preemergence, 16 g ai/ha",0
same,"Plant response rating, Groundsel","common groundsel; Preemergence, 31 g ai/ha",50
same,Itchgrass plant response rating,"itchgrass; 62 g ai/ha, Preemergence",0
same,Itchgrass plant response rating,"itchgrass; 125 g ai/ha, preemergence",60
same,"Plant response rating, Itchgrass","itchgrass; Preemergence, 16 g ai/ha",0
same,"Plant response rating, Itchgrass","itchgrass; Preemergence, 31 g ai/ha",0
same,Quackgrass plant response rating,"quackgrass; 62 g ai/ha, Preemergence",20
same,Quackgrass plant response rating,"quackgrass; 125 g ai/ha, preemergence",60
same,"Plant response rating, Quackgrass","quackgrass; Preemergence, 16 g ai/ha",0
same,"Plant response rating, Quackgrass","quackgrass; Preemergence, 31 g ai/ha",10
same,Field Bindweed plant response rating,"field bindweed; 62 g ai/ha, Preemergence",0
same,Field Bindweed plant response rating,"field bindweed; 125 g ai/ha, preemergence",35
same,"Plant response rating, Field Bindweed","field bindweed; Preemergence, 16 g ai/ha",0
same,"Plant response rating, Field Bindweed","field bindweed; Preemergence, 31 g ai/ha",0
same,Mallow plant response rating,"common mallow; 62 g ai/ha, Preemergence",65
same,Mallow plant response rating,"common mallow; 125 g ai/ha, preemergence",65
same,"Plant response rating, Mallow","common mallow; Preemergence, 16 g ai/ha",0
same,"Plant response rating, Mallow","common mallow; Preemergence, 31 g ai/ha",0
